Data: PubChem BioAssay AID270 (DTP/NCI, 2004)
“And” between values parts separate entries of the source, which are not always exact repeats. Identical values can stand only once. Results filed as inconclusive are left out.

Test system: BDF1 mice, s.c. Lewis lung carcinoma, T/C %
Experiment: NCI In Vivo Anticancer Drug Screen. Data for tumor model Lewis Lung Carcinoma (subcutaneous) in B6D2F1 (BDF1) mice
Outline: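 The value reflects a ratio in which the treated cohort's survival time or tumour size is compared against mice receiving only vehicle.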

[1] = endpoint: mean tumor weight, dose: 12.5 mg/kg/injection, schedule: Q01DX011 (ip), vehicle: saline, higher = larger tumour
[2] = endpoint: mean tumor weight, dose: 25.0 mg/kg/injection, schedule: Q01DX011 (ip), vehicle: saline, higher = larger tumour
[3] = endpoint: mean tumor weight, dose: 50.0 mg/kg/injection, schedule: Q01DX011 (ip), vehicle: saline, higher = larger tumour
[4] = endpoint: median survival time, dose: 1.56 mg/kg/injection, schedule: Q01DX009 (ip), vehicle: saline, higher = longer survival
[5] = endpoint: median survival time, dose: 3.13 mg/kg/injection, schedule: Q01DX009 (ip), vehicle: saline, higher = longer survival

Oc1ccc(Nc2ccnc3cc(Cl)ccc23)cc1CN(CCCl)CCCl
T/C (endpoint: median survival time, dose: 2.5 mg/kg/injection, schedule: Q01DX009 (ip), vehicle: saline, higher = longer survival): 108 % of control

O=c1c(O)c(-c2ccc(O)c(O)c2)oc2cc(O)ccc12
T/C [1]: 99 % of control
T/C [2]: 95 % of control
T/C [3]: 91 % of control

COc1cc(NS(C)(=O)=O)ccc1Nc1c2ccccc2nc2ccccc12
T/C (endpoint: median survival time, dose: 0.13 mg/kg/injection, schedule: Q01DX009 (ip), vehicle: other, higher = longer survival): 117 % of control
T/C (endpoint: median survival time, dose: 0.5 mg/kg/injection, schedule: Q01DX009 (ip), vehicle: other, higher = longer survival): 118 % of control
T/C (endpoint: median survival time, dose: 0.78 mg/kg/injection, schedule: Q01DX009 (ip), vehicle: saline, higher = longer survival): 96 % of control
T/C (endpoint: median survival time, dose: 1.25 mg/kg/injection, schedule: Q01DX011 (ip), vehicle: Klucel (hydroxypropylcellulose) (HPC), higher = longer survival): 91 % of control
T/C [4]: 100 % of control
T/C (endpoint: median survival time, dose: 2.5 mg/kg/injection, schedule: Q01DX011 (ip), vehicle: Klucel (hydroxypropylcellulose) (HPC), higher = longer survival): 96 % of control
T/C (endpoint: median survival time, dose: 3.12 mg/kg/injection, schedule: Q01DX009 (ip), vehicle: Klucel (hydroxypropylcellulose) (HPC), higher = longer survival): 118 % of control
T/C [5]: 103 % of control and 107 % of control
T/C (endpoint: median survival time, dose: 6.25 mg/kg/injection, schedule: Q01DX009 (ip), vehicle: Klucel (hydroxypropylcellulose) (HPC), higher = longer survival): 115 % of control
T/C (endpoint: median survival time, dose: 12.5 mg/kg/injection, schedule: Q01DX009 (ip), vehicle: Klucel (hydroxypropylcellulose) (HPC), higher = longer survival): 214 % of control
T/C (endpoint: median tumor weight (est.), dose: 1.25 mg/kg/injection, schedule: Q01DX011 (ip), vehicle: Klucel (hydroxypropylcellulose) (HPC), higher = larger tumour): 88 % of control
T/C (endpoint: median tumor weight (est.), dose: 2.5 mg/kg/injection, schedule: Q01DX011 (ip), vehicle: Klucel (hydroxypropylcellulose) (HPC), higher = larger tumour): 110 % of control
T/C (endpoint: median tumor weight (est.), dose: 5.0 mg/kg/injection, schedule: Q01DX011 (ip), vehicle: Klucel (hydroxypropylcellulose) (HPC), higher = larger tumour): 504 % of control

CC(=O)OC(C)(C)/C=C/C(=O)[C@](C)(O)[C@H]1[C@H](O)C[C@@]2(C)[C@@H]3CC=C4[C@@H](CC[C@H](O)C4(C)C)[C@]3(CO)C(=O)C[C@]12C
T/C (endpoint: mean tumor weight, dose: 0.57 mg/kg/injection, schedule: Q01DX011 (ip), vehicle: saline, higher = larger tumour): 67 % of control

NC(=O)c1ncn(C2OC(CO)C(O)C2O)n1 (stereo not drawn)
T/C (endpoint: median survival time, dose: 20.0 mg/kg/injection, schedule: Q01DX009 (ip), vehicle: saline, higher = longer survival): 100 % of control
T/C (endpoint: median survival time, dose: 40.0 mg/kg/injection, schedule: Q01DX009 (ip), vehicle: saline, higher = longer survival): 93 % of control and 107 % of control
T/C (endpoint: median survival time, dose: 80.0 mg/kg/injection, schedule: Q01DX009 (ip), vehicle: saline, higher = longer survival): 97 % of control and 107 % of control
T/C (endpoint: median survival time, dose: 160.0 mg/kg/injection, schedule: Q01DX009 (ip), vehicle: saline, higher = longer survival): 118 % of control

O=NN(CCCl)C(=O)N[C@H]1CCCC[C@@H]1Cl
T/C (endpoint: median survival time, dose: 9.0 mg/kg/injection, schedule: Q01DX001 (ip), vehicle: Klucel (hydroxypropylcellulose) (HPC), higher = longer survival): 112 % of control
T/C (endpoint: median survival time, dose: 11.0 mg/kg/injection, schedule: Q01DX001 (ip), vehicle: gum acacia, higher = longer survival): 114 % of control
T/C (endpoint: median survival time, dose: 17.0 mg/kg/injection, schedule: Q01DX001 (ip), vehicle: gum acacia, higher = longer survival): 107 % of control
T/C (endpoint: median survival time, dose: 18.0 mg/kg/injection, schedule: Q01DX001 (ip), vehicle: Klucel (hydroxypropylcellulose) (HPC), higher = longer survival): 124 % of control
T/C (endpoint: median survival time, dose: 25.0 mg/kg/injection, schedule: Q01DX001 (ip), vehicle: gum acacia, higher = longer survival): 95 % of control
T/C (endpoint: median survival time, dose: 25.0 mg/kg/injection, schedule: Q04DX004 (ip), vehicle: gum acacia, higher = longer survival): 172 % of control
T/C (endpoint: median survival time, dose: 45.0 mg/kg/injection, schedule: Q07DX002 (ip), vehicle: gum acacia, higher = longer survival): 159 % of control
T/C (endpoint: median survival time, dose: 72.0 mg/kg/injection, schedule: Q01DX001 (ip), vehicle: Klucel (hydroxypropylcellulose) (HPC), higher = longer survival): 122 % of control
T/C (endpoint: median tumor weight (est.), dose: 18.0 mg/kg/injection, schedule: Q01DX001 (ip), vehicle: gum acacia, higher = larger tumour): 68 % of control
T/C (endpoint: median tumor weight (est.), dose: 37.0 mg/kg/injection, schedule: Q01DX001 (ip), vehicle: gum acacia, higher = larger tumour): 23 % of control
T/C (endpoint: median tumor weight (est.), dose: 55.0 mg/kg/injection, schedule: Q01DX001 (ip), vehicle: gum acacia, higher = larger tumour): 7 % of control

COC1N(C2CC(O)C(CO)O2)C(=O)NC(=O)C1(F)Br (stereo not drawn)
T/C (endpoint: mean tumor weight, dose: 8.8 mg/kg/injection, schedule: Q01DX011 (ip), vehicle: saline, higher = larger tumour): 45 % of control and 51 % of control and 55 % of control
T/C (endpoint: mean tumor weight, dose: 13.3 mg/kg/injection, schedule: Q01DX011 (ip), vehicle: saline, higher = larger tumour): 36 % of control and 56 % of control and 57 % of control
T/C (endpoint: mean tumor weight, dose: 20.0 mg/kg/injection, schedule: Q01DX011 (ip), vehicle: saline, higher = larger tumour): 13 % of control and 22 % of control
T/C [4]: 110 % of control and 117 % of control
T/C (endpoint: median survival time, dose: 3.12 mg/kg/injection, schedule: Q01DX009 (ip), vehicle: saline, higher = longer survival): 110 % of control
T/C [5]: 113 % of control
T/C (endpoint: median survival time, dose: 6.25 mg/kg/injection, schedule: Q01DX009 (ip), vehicle: saline, higher = longer survival): 109 % of control and 277 % of control
T/C (endpoint: median survival time, dose: 12.5 mg/kg/injection, schedule: Q01DX009 (ip), vehicle: saline, higher = longer survival): 279 % of control

CC(C)(C)C1CCC(NC(=O)N(CCCl)N=O)CC1 (stereo not drawn)
T/C (endpoint: median survival time, dose: 140.0 mg/kg/injection, schedule: Q01DX001 (ip), vehicle: gum acacia, higher = longer survival): 118 % of control
T/C (endpoint: median survival time, dose: 315.0 mg/kg/injection, schedule: Q01DX001 (ip), vehicle: gum acacia, higher = longer survival): 121 % of control

[Cl][Hg][c]1ccc2ccccc2c1
T/C (endpoint: median survival time, dose: 3.0 mg/kg/injection, schedule: Q01DX009 (ip), vehicle: gum acacia, higher = longer survival): 89 % of control
T/C (endpoint: median survival time, dose: 6.0 mg/kg/injection, schedule: Q01DX009 (ip), vehicle: gum acacia, higher = longer survival): 108 % of control

N/C(CCSc1ccccc1N=Cc1ccccc1O)=N/O
T/C (endpoint: median survival time, dose: 3.13 mg/kg/injection, schedule: Q01DX009 (ip), vehicle: olive oil, sesame oil, peanut oil, higher = longer survival): 87 % of control

CC(=O)N(C)C(C(=O)N1CC(C)CC1C(=O)N(C)C1C(=O)NC(CC(C)C)C(=O)N2CC(C)CC2C(=O)NC(CC(C)C)C(=O)N(C)C(C(C)C)C(=O)N2CCCC2C(=O)N(C)C(CC(C)C)C(=O)NCC(=O)OC1C)C(C)C (stereo not drawn)
T/C (endpoint: median survival time, dose: 9.4 mg/kg/injection, schedule: Q01DX009 (ip), vehicle: Klucel (hydroxypropylcellulose) (HPC), higher = longer survival): 94 % of control
T/C (endpoint: median survival time, dose: 18.75 mg/kg/injection, schedule: Q01DX009 (ip), vehicle: Klucel (hydroxypropylcellulose) (HPC), higher = longer survival): 98 % of control
T/C (endpoint: median survival time, dose: 37.5 mg/kg/injection, schedule: Q01DX009 (ip), vehicle: Klucel (hydroxypropylcellulose) (HPC), higher = longer survival): 96 % of control

CCOC(N)=O
T/C (endpoint: mean tumor weight, dose: 60.0 mg/kg/injection, schedule: Q01DX011 (ip), vehicle: saline, higher = larger tumour): 119 % of control
T/C (endpoint: mean tumor weight, dose: 100.0 mg/kg/injection, schedule: Q01DX011 (ip), vehicle: saline, higher = larger tumour): 90 % of control
T/C (endpoint: mean tumor weight, dose: 125.0 mg/kg/injection, schedule: Q01DX011 (ip), vehicle: saline, higher = larger tumour): 123 % of control
T/C (endpoint: mean tumor weight, dose: 200.0 mg/kg/injection, schedule: Q01DX011 (ip), vehicle: saline, higher = larger tumour): 60 % of control and 67 % of control and 69 % of control
T/C (endpoint: mean tumor weight, dose: 250.0 mg/kg/injection, schedule: Q01DX011 (ip), vehicle: saline, higher = larger tumour): 62 % of control
T/C (endpoint: mean tumor weight, dose: 400.0 mg/kg/injection, schedule: Q01DX011 (ip), vehicle: saline, higher = larger tumour): 33 % of control and 41 % of control and 56 % of control
T/C (endpoint: mean tumor weight, dose: 600.0 mg/kg/injection, schedule: Q01DX011 (ip), vehicle: saline, higher = larger tumour): 38 % of control

O=S(=O)(O)O.[NH-]CC1(C[NH-])CCCCC1.[Pt+2]
T/C (endpoint: median survival time, dose: 6.0 mg/kg/injection, schedule: Q04DX003 (ip), vehicle: other, higher = longer survival): 100 % of control

COC(C(=O)C(O)C(C)O)C1Cc2cc3cc(OC4CC(OC5CC(O)C(O)C(C)O5)C(O)C(C)O4)c(C)c(O)c3c(O)c2C(=O)C1OC1CC(OC2CC(O)C(OC3CC(C)(O)C(O)C(C)O3)C(C)O2)C(O)C(C)O1 (stereo not drawn)
T/C (endpoint: median survival time, dose: 0.06 mg/kg/injection, schedule: Q01DX009 (ip), vehicle: saline, higher = longer survival): 93 % of control
T/C (endpoint: median survival time, dose: 0.13 mg/kg/injection, schedule: Q01DX009 (ip), vehicle: saline, higher = longer survival): 93 % of control and 123 % of control
T/C (endpoint: median survival time, dose: 0.25 mg/kg/injection, schedule: Q01DX009 (ip), vehicle: saline, higher = longer survival): 96 % of control
T/C (endpoint: median survival time, dose: 0.5 mg/kg/injection, schedule: Q01DX009 (ip), vehicle: saline, higher = longer survival): 94 % of control

Cc1ccc2oc(-c3ccccc3)c(O)c(=O)c2c1
T/C (endpoint: mean tumor weight, dose: 18.8 mg/kg/injection, schedule: Q01DX010 (ip), vehicle: saline, higher = larger tumour): 77 % of control
T/C (endpoint: mean tumor weight, dose: 37.5 mg/kg/injection, schedule: Q01DX010 (ip), vehicle: saline, higher = larger tumour): 73 % of control
T/C (endpoint: mean tumor weight, dose: 75.0 mg/kg/injection, schedule: Q01DX010 (ip), vehicle: saline, higher = larger tumour): 57 % of control
T/C (endpoint: mean tumor weight, dose: 150.0 mg/kg/injection, schedule: Q01DX010 (ip), vehicle: saline, higher = larger tumour): 86 % of control

O=C1C=CC(=Nc2ccc(O)c3ncccc23)c2cccnc21
T/C [1]: 94 % of control
T/C [2]: 49 % of control
T/C [3]: 26 % of control

O=C(N/N=C/c1ccc(O)cc1O)c1cccnc1
T/C (endpoint: median survival time, dose: 6.25 mg/kg/injection, schedule: Q01DX009 (ip), vehicle: olive oil, sesame oil, peanut oil, higher = longer survival): 91 % of control
T/C (endpoint: median survival time, dose: 25.0 mg/kg/injection, schedule: Q01DX009 (ip), vehicle: olive oil, sesame oil, peanut oil, higher = longer survival): 101 % of control

COc1cc2c(c(OC)c1OC)-c1cc3c(cc1[C@@H](OC(C)=O)[C@@H]1COC(=O)[C@H]1C2)OCO3
T/C (endpoint: median survival time, dose: 2.5 mg/kg/injection, schedule: Q01DX009 (ip), vehicle: Klucel (hydroxypropylcellulose) (HPC), higher = longer survival): 94 % of control
T/C (endpoint: median survival time, dose: 5.0 mg/kg/injection, schedule: Q01DX009 (ip), vehicle: Klucel (hydroxypropylcellulose) (HPC), higher = longer survival): 97 % of control
T/C (endpoint: median survival time, dose: 10.0 mg/kg/injection, schedule: Q01DX009 (ip), vehicle: Klucel (hydroxypropylcellulose) (HPC), higher = longer survival): 95 % of control
